Laboratory results from paper PMC9684503 (Communications Biology, 2022).
Values joined by “and” are separate entries in the source; they are usually repeats but may differ in a detail not shown here. Equal values may be shown once. Where a name gives a salt, the structure may show the parent alone. Read-outs that look alike come from different tables or passages of the source. Each block holds one compound with its values, some of them ahead of it.

Legend:
[1] = target: T1, rat VMAT2-His (Rattus norvegicus, UniProt Q01827); assay: Differential scanning fluorimetry (DSF) with CPM dye: change of melting temperature of purified VMAT2; format: binding; settings: for ΔTm at 12 µM: compound 0,12 µM; for ΔTm at 37 µM: compound 0,37 µM; for ΔTm at 10 µM: compound 10 µM; for ΔTm at 30 µM: compound 30 µM; for ΔTm at 90 µM: compound 90 µM; for ΔTm at 270 µM: compound 270 µM
T1 construct: The ORF of rat VMAT2 was subcloned into a pFastBac vector; His; made in house; host or cells: Sf9 insect cells (baculovirus)
T1 sequence (Q01827 whole entry): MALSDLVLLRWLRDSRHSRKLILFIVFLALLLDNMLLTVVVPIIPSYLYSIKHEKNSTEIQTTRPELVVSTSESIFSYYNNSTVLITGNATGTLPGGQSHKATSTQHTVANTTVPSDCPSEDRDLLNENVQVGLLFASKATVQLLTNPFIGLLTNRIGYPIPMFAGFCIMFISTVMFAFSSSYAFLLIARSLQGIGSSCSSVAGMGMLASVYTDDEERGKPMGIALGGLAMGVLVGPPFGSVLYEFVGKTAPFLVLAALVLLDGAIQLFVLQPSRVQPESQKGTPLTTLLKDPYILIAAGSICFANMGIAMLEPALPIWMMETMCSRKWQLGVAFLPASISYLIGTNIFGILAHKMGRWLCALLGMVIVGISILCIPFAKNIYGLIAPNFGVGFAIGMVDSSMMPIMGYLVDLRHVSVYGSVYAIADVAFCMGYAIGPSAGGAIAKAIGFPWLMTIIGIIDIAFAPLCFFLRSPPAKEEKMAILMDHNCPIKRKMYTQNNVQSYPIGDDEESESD
Description: To screen purified VMAT2 by DSF we expressed the rat VMAT2 protein, as VMAT2-His, in SF9 insect cells using the baculovirus expression system. The transporter was solubilized and purified in n-Dodecyl-β-D-maltoside (DDM)/cholesterol hemisuccinate (CHS) micelles by immobilized metal affinity chromatography (IMAC) and size exclusion chromatography (SEC). […] Screening was performed using DSF and the thiol-reactive dye 7-diethylamino-3-(4-maleimidophenyl)-4-methylcoumarin (CPM), an approach that monitors changes to the protein melting temperature (Tm) upon compound binding. Using CPM or other dyes, DSF-based assays have successfully been used in molecular-based screenings[34],[35]. […] DSF screening was performed in 384 well plates using the thiol-sensing dye 7-diethylamino-3-(4-maleimidophenyl)-4-methylcoumarin (CPM) (Merck). […] Protein melting curves were determined using a LightCycler 480 ii RT-PCR system (Roche), with a temperature ramp increasing from 25 to 95 °C at a rate of 2 °C/min. Data analysis was performed using an in-house software that automatically determines the protein midpoint melting temperature (Tm) based on the second derivative of the melting curves or using the HTSDSF explorer as described in ref. [58]. […] 6 μl of this mix was dispensed to each well of 384 well plates using a Multidrop™ Combi Reagent Dispenser (Thermo Scientific). […] All initial hits were then subjected to an initial validation in triplicates with a compound concentration of 200 μM and a ΔTm > 5× the standard deviation (SD) cut off. […] Processing of the data from the primary screening and the concentration-dependent validation was performed as reported.

[2] = target: T2, human VMAT1 (Homo sapiens, UniProt P54219); assay: FFN206 uptake assay in transfected Hek293 cells; format: cell-based; settings: Table S1, substrate uptake assays in transfected Hek293 cells
T2 construct: expressed in transfected cells; host or cells: Hek293 cells, transient
T2 sequence (P54219 1-525): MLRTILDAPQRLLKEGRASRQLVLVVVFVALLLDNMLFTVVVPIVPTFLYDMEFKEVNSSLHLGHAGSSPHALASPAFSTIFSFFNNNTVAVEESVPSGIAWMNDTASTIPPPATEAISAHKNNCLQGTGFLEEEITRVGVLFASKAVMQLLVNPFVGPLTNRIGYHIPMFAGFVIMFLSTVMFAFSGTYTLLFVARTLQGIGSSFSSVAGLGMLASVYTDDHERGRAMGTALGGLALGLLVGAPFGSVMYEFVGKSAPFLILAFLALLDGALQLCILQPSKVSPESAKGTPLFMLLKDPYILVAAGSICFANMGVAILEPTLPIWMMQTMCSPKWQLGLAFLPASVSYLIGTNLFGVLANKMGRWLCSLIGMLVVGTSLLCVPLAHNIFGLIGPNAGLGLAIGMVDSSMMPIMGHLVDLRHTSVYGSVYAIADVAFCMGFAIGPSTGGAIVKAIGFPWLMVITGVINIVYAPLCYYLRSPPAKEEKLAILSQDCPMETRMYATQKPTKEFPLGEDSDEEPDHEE

[3] = target: T3, human VMAT2 (Homo sapiens, UniProt Q05940); assay: FFN206 uptake assay in transfected Hek293 cells; format: cell-based; settings: Table S1, substrate uptake assays in transfected Hek293 cells
T3 construct: expressed in transfected cells; host or cells: Hek293 cells, transient
T3 sequence (Q05940 whole entry): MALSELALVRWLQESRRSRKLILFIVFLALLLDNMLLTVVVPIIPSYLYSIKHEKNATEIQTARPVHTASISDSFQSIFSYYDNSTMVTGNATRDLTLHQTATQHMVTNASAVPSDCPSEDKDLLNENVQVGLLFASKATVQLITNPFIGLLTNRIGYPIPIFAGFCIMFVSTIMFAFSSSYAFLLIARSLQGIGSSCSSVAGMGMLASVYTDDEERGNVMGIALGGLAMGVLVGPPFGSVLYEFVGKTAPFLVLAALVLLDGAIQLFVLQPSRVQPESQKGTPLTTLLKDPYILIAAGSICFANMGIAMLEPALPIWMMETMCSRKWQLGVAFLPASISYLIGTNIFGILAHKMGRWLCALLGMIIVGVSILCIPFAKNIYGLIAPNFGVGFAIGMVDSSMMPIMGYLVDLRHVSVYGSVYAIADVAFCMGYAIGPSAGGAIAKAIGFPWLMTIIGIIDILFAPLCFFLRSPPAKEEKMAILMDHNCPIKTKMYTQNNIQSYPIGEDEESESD

[4] = target: rat VMAT2 Q143A (Rattus norvegicus, UniProt Q01827, Q143A); assay: FFN206 uptake assay, VMAT2 mutant
Sequence of rat VMAT2 Q143A (Q01827 whole entry Q143A): as the sequence (Q01827 whole entry) above, with Q143A counted along it
Description: (§1) For activity assays, [^3H]-DTBZ and [^3H]-SMT binding and competition assays (see section below), several VMAT2 mutants were prepared. […] In addition, a selection of rVMAT2 mutants carrying mutations designed from binding modes identified by docking and MD-simulation was prepared in a pcDNA3.1 rVMAT2-Strep tag II plasmid.

[5] = target: rat VMAT2 P314A (Rattus norvegicus, UniProt Q01827, P314A); assay: FFN206 uptake assay, VMAT2 mutant
Sequence of rat VMAT2 P314A (Q01827 whole entry P314A): as the sequence (Q01827 whole entry) above, with P314A counted along it
Description: as §1

[6] = target: T4, VMAT2 (Rattus norvegicus, UniProt Q01827); settings: 50 µM
T4 sequence (Q01827 whole entry): as the sequence (Q01827 whole entry) above

[7] = target: rat VMAT2 (Rattus norvegicus, UniProt Q01827); assay: FFN206 uptake assay in transfected Hek293 cells; settings: for VMAT2-specific FFN206 uptake relative to DMSO (=1), replicate samples: Fig. 2a source data, 25 μM compound; for FFN206 uptake relative to no compound (=1), replicate samples: Fig. 2b/2c source data
Sequence of rat VMAT2 (Q01827 whole entry): as above

[8] = target: T4, VMAT2; assay: [3H]-DTBZ competition assay in Hek293 cells expressing VMAT2;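 on all read-outs here: HEK293 cells transfected with VMAT2, pretreated 30 min with compound, then given 5 nM [3H]-DTBZ for 20 min at 37 °C, bound label read by scintillation counting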; settings: for effect on [3H]-DTBZ binding compared with DMSO control (one-way ANOVA, p < 0.001): 50 μM compound; for [3H]-DTBZ binding relative to no compound (=1), replicate samples: Fig. 3b source data
[9] = tested on: rat VMAT2 variants; settings: cited from earlier work
[10] = Table 1, DSF screening, mean ± SD of triplicates
[11] = Table S2 dose response, read-out: ΔTm
[12] = Table S2 dose response, compound 1,11 µM, read-out: ΔTm
[13] = Table S2 dose response, compound 3,33 µM, read-out: ΔTm

ΔTm [1, 10]: 2.69 ± 0.12 oC
ΔTm at 12 µM [1, 11]: 0.41 °C
ΔTm at 37 µM [1, 11]: 0.68 °C
ΔTm at 10 µM [1, 11]: 0.6 °C
ΔTm at 30 µM [1, 11]: 0.71 °C
ΔTm at 90 µM [1, 11]: 1.13 °C
ΔTm at 270 µM [1, 11]: 1.82 °C
ΔTm at 11 µM [1, 12]: 0.69 °C
ΔTm at 33 µM [1, 13]: 0.58 °C
IC50 [4]: 354 ± 83 nM
fold increased IC50 vs wild-type ([4]; Q143A): ~10 fold
IC50 [5]: 132 ± 8 nM
fold increased IC50 vs wild-type ([5]; P314A): approx. 3 fold
IC50 [2]: 35 nM
IC50 [3]: 23 nM
activity ([6]; hek293 cells): 36.5 ± 7.71%
IC50 [7]: 39 ± 17 nM
FFN206 uptake relative to no compound (=1), replicate samples ([7]; compound 0.0152 μM): 0.7804 and 0.7848 and 0.755 and 0.7991
FFN206 uptake relative to no compound (=1), replicate samples ([7]; compound 0.1372 μM): 0.4886 and 0.4837 and 0.4034 and 0.5734
FFN206 uptake relative to no compound (=1), replicate samples ([7]; compound 0.4115 μM): 0.4342 and 0.3743 and 0.3683 and 0.4657
FFN206 uptake relative to no compound (=1), replicate samples ([7]; compound 1.2346 μM): 0.3953 and 0.3737 and 0.3153 and 0.4191
FFN206 uptake relative to no compound (=1), replicate samples ([7]; compound 3.7037 μM): 0.3802 and 0.3604 and 0.2907 and 0.3691
FFN206 uptake relative to no compound (=1), replicate samples ([7]; compound 11.1111 μM): 0.4118 and 0.377 and 0.294 and 0.3618
FFN206 uptake relative to no compound (=1), replicate samples ([7]; compound 100.0000 μM): 0.3782 and 0.3789 and 0.3057 and 0.3727
effect on [3H]-DTBZ binding compared with DMSO control (one-way ANOVA, p < 0.001) [8]: statistically significantly effect
[3H]-DTBZ binding relative to no compound (=1), replicate samples ([8]; compound 0.0017): 0.8751 and 1.064 and 1.013 and 0.8455
[3H]-DTBZ binding relative to no compound (=1), replicate samples ([8]; compound 0.0051): 0.8936 and 1.069 and 1.018 and 0.8322
[3H]-DTBZ binding relative to no compound (=1), replicate samples ([8]; compound 0.0152): 0.7303 and 1.42 and 1.076 and 0.8096
[3H]-DTBZ binding relative to no compound (=1), replicate samples ([8]; compound 0.0457): 0.8393 and 0.4876 and 0.8108 and 0.8579
[3H]-DTBZ binding relative to no compound (=1), replicate samples ([8]; compound 0.1372): 1.015 and 0.924 and 0.9381 and 0.7974
[3H]-DTBZ binding relative to no compound (=1), replicate samples ([8]; compound 0.4115): 0.6748 and 0.8924 and 0.7988 and 0.4363
[3H]-DTBZ binding relative to no compound (=1), replicate samples ([8]; compound 1.2346): 0.4427 and 0.7246 and 0.4654 and 0.6729
[3H]-DTBZ binding relative to no compound (=1), replicate samples ([8]; compound 3.7037): 0.6274 and 0.382 and 0.3472 and 0.5985
[3H]-DTBZ binding relative to no compound (=1), replicate samples ([8]; compound 11.1111): 0.6424 and 0.4197 and 0.5023 and 0.5651
[3H]-DTBZ binding relative to no compound (=1), replicate samples ([8]; compound 33.3333): 0.4189 and 0.1764 and 0.1269 and 0.541
[3H]-DTBZ binding relative to no compound (=1), replicate samples ([8]; compound 100.0000 (μM per methods)): 0.3228 and 0.1927 and 0.2304 and 0.2985
Compound: O=C1Cc2cc(CCN3CCN(c4nsc5ccccc45)CC3)c(Cl)cc2N1 [Ziprasidone, Ziprasidone Hydrochloride]
VMAT2-specific FFN206 uptake relative to DMSO (=1), replicate samples [7]: -0.0048 and -0.08665 and -0.06177 and 0.05752

ΔTm [1, 10]: −7.51 ± 0.04 oC
ΔTm at 12 µM [1, 11]: -0.81 °C
ΔTm at 37 µM [1, 11]: -0.99 °C
ΔTm at 10 µM [1, 11]: -2.21 °C
ΔTm at 30 µM [1, 11]: -1.43 °C
ΔTm at 90 µM [1, 11]: -2.04 °C
ΔTm at 270 µM [1, 11]: -5.36 °C
ΔTm at 11 µM [1, 12]: -1.46 °C
ΔTm at 33 µM [1, 13]: -1.47 °C
activity ([6]; hek293 cells): 113 ± 23.2%
IC50 [7]: 3900 ± 1690 nM
effect on [3H]-DTBZ binding compared with DMSO control (one-way ANOVA, p < 0.001) [8]: no statistically significant effect
Compound: COc1ccc(CN2CCN(C(c3ccc(F)cc3)c3ccc(F)cc3)CC2)c(OC)c1OC [Lomerizine, Lomerizine hydrochloride]
VMAT2-specific FFN206 uptake relative to DMSO (=1), replicate samples [7]: 0.1198 and 0.07933 and 0.1667 and 0.07626

More lines, now with the values behind:

Compound: COc1cc2c(cc1OC)C1CC(=O)C(CC(C)C)CN1CC2 (stereo not drawn) [Tetrabenazine]
ΔTm [1, 10]: 8.17 ± 0.14 oC
ΔTm at 12 µM [1, 11]: 4.89 °C
ΔTm at 37 µM [1, 11]: 5.05 °C
ΔTm at 10 µM [1, 11]: 6.86 °C
ΔTm at 30 µM [1, 11]: 4.27 °C
ΔTm at 90 µM [1, 11]: 4.64 °C
ΔTm at 270 µM [1, 11]: 5.17 °C
ΔTm at 11 µM [1, 12]: 5.52 °C
ΔTm at 33 µM [1, 13]: 5.92 °C
IC50 [2]: > 100000 nM
IC50 [3]: 18 nM

Compound: [3H]‐tetrabenazine
[3H]-tetrabenazine binding [9]: no TBZ binding
[3H]-tetrabenazine binding: reduction [9]: > 90%
[3H]-tetrabenazine binding: reduction in binding [9]: 50%
[3H]-tetrabenazine binding ([9]; variant E313D, ref [3, 4]): no binding

Compound: CC(C)n1c(/C=C/C(O)CC(O)CC(=O)O)c(-c2ccc(F)cc2)c2ccccc21 (stereo not drawn) [Fluvastatin, Fluvastatin sodium salt]
ΔTm [1, 10]: 4.98 ± 0.17 oC
ΔTm at 12 µM [1, 11]: 0.62 °C
ΔTm at 37 µM [1, 11]: 0.66 °C
ΔTm at 10 µM [1, 11]: 0.87 °C
ΔTm at 30 µM [1, 11]: 1.05 °C
ΔTm at 90 µM [1, 11]: 1.39 °C
ΔTm at 270 µM [1, 11]: 2.74 °C
ΔTm at 11 µM [1, 12]: 0.71 °C
ΔTm at 33 µM [1, 13]: 0.66 °C
activity ([6]; hek293 cells): 80.2 ± 34.8%
VMAT2-specific FFN206 uptake relative to DMSO (=1), replicate samples [7]: 0.09585 and -0.01946 and 0.03446
effect on [3H]-DTBZ binding compared with DMSO control (one-way ANOVA, p < 0.001) [8]: no statistically significant effect

Compound: OC(CCN1CCCCC1)(c1ccccc1)C1CC2C=CC1C2 (stereo not drawn) [Biperiden, Biperiden hydrochloride]
ΔTm [1, 10]: 1.32 ± 0.22 oC
ΔTm at 12 µM [1, 11]: 0.2 °C
ΔTm at 37 µM [1, 11]: 0.33 °C
ΔTm at 10 µM [1, 11]: 1.11 °C
ΔTm at 30 µM [1, 11]: 1.6 °C
ΔTm at 90 µM [1, 11]: 0.9 °C
ΔTm at 270 µM [1, 11]: 2.12 °C
ΔTm [1, 12]: 0.45 °C
ΔTm [1, 13]: 0.56 °C
activity [6]: 79.9 ± 19.1%
VMAT2-specific FFN206 uptake relative to DMSO (=1), replicate samples [7]: 0.4909 and 0.5029 and 0.6058 and 0.5946
inhibition at 25 µM ([7]; HEK293, read-out: inhibitory effect on VMAT2 activity): ≤ 50%
effect on [3H]-DTBZ binding compared with DMSO control (one-way ANOVA, p < 0.001) [8]: no statistically significant effect
